# Source: patent publication US20220274938A1, “5-[(1S)-1-(4-BROMOPHENOXY)ETHYL]-2H-TETRAZOLE DERIVATIVES AND RELATED COMPOUNDS AS CLC-1 ION CHANNEL INHIBITORS FOR TREATING NEUROMUSCULAR DISORDERS” (NMD PHARMA A/S, priority 2019, published 2022)
# Biological target: T1, human CIC-1 channels (Homo sapiens, UniProt P35523)
# T1 construct: host or cells: CHO (Chinese hamster ovary) cells, cryopreserved, used directly after thawing
# Assay: Automated patch-clamp on the human isoform of CIC-1 expressed in CHO cells
# Assay type: cell-based
# Conditions: compound added to the intracellular solution vs control cell patches, positive shift reflects inhibition
# Protocol: The investigatory goal of these experiments was to evaluate how compounds affect the open probability and current amplitude of human CIC-1 channels expressed in CHO cells. Experiments were performed using an automated patch clamp system that allowed high throughput testing of whole cell patches together with both intracellular and extracellular addition of compound.
# Automated whole cell patch clamp experiments were performed with the Qpatch 16 system (Sophion Bioscience, Ballerup, Denmark) at room temperature. Data acquisition and analysis were performed in the Qassay software (ver. 5.6, Odense).
# To obtain tail currents, the membrane potential was stepped to −100 mV after each test voltage for 300 ms and then relaxed to −30 mV for 2 sec between sweeps (FIG. 3). I/V relationships for whole cell instant and steady state current amplitudes were obtained by plotting average current densities at the beginning and at the end of the 300 ms step against the membrane potential (FIG. 4).
# In order to determine the relative overall open probability (Po), the instantaneous tail currents were normalized to the maximal tail current obtained following the most positive voltage step and plotted against the test voltage. Plots of normalized tail currents from each whole cell patch were then fitted to a Boltzmann function allowing determination of half activation voltages (V1/2, FIG. 5).
# Osmolality adjusted to ˜320 using sucrose. Intracellular solutions contained: 80 mM CsF, 60 mM CsCl, 5/1 mM KOH/EGTA, 10 mM HEPES, 10 mM NaCl, pH adjusted to 7.2 with NaOH (2 M). Osmolality adjusted to ˜320 mOsm using sucrose.
# Cells used in patch clamp experiments were Chinese hamster ovary cells (CHO) constitutively expressing human CIC-1 channels. The amino acid sequence encoded by the cDNA used to create this cell line was identical to the translated sequence for GenBank accession number NM_000083.2. Cells were produced by Charles River (Catalogue CT6175, Cleveland Ohio, USA) in a cryopreserved format. Experiments were performed on the cells directly after thawing (3×10^6 cells used in each experiment).
# To evaluate the compound effect on CIC-1, when applied directly to the intracellular side of the cell membrane, the half activation voltage, V1/2, was determined from whole cell patches with compound added to the intracellular solution and then compared to V1/2 determined from control cell patches with only vehicle added to the intracellular solution. Additionally, the effect of extracellular added compound was evaluated by determine V1/2 and steady state current amplitudes before and after exchanging the extracellular solution to contain compound.
# The difference in half activation voltage of CIC-1 channels, ΔV1/2, was determined as the difference between the cell patches treated intracellularly with compound and control cells patches and is reported in Table 4 below. A positive shift in ΔV1/2 is reflecting CIC-1 channel inhibition by the tested compound. P-values of <0.05 is considered significant.
# T1 sequence (P35523 whole entry): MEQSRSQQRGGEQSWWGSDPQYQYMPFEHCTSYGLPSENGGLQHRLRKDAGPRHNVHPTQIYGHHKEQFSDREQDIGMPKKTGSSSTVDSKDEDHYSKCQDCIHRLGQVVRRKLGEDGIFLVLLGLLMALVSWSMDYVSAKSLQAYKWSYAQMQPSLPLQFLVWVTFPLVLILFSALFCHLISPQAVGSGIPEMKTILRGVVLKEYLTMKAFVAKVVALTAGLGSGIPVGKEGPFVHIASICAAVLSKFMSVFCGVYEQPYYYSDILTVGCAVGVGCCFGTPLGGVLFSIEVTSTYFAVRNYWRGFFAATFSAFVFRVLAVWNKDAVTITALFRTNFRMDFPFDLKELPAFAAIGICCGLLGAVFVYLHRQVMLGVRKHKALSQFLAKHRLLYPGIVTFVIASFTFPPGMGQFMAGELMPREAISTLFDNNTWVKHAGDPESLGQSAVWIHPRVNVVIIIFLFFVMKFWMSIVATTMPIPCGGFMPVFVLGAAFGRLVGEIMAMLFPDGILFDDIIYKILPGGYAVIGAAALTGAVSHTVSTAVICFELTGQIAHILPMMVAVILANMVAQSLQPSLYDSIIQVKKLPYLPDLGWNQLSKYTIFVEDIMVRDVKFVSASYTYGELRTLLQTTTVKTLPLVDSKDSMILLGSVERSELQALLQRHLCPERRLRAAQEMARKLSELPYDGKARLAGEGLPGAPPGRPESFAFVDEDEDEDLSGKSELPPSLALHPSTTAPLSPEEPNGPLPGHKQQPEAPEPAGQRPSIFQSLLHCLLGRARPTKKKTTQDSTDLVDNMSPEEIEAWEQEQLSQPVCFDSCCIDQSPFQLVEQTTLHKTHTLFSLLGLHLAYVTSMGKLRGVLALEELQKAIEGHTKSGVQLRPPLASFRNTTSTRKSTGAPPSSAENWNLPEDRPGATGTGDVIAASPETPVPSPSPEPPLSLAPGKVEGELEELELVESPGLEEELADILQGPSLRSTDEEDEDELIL
smiles,measurement,value
"C[C@H](Oc1ccc(Cl)cc1)C(=O)NOC1CCC1 [Compound C-80, (2S)-2-(4-chlorophenoxy)-N-cyclobutoxypropanamide]",ΔV1/2 (difference in half activation voltage of CIC-1 channels),9.9 mV
"C[C@H](Oc1ccc(Br)cc1F)c1nn[nH]n1 [Compound E-8, 5-[(1S)-1-(4-bromo-2-fluorophenoxy)ethyl]-2H-1,2,3,4-tetrazole]",ΔV1/2 (difference in half activation voltage of CIC-1 channels),38.4 mV
